Assay results taken from PubChem BioAssay (NCI).
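Method: 48-hour compound exposure of cells in 96-well plates, five concentrations, linear interpolation of endpoints. GI50: concentration for 50% inhibition of growth. The concentration for full growth arrest is given as TGI.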

Experiments:
Assay in all cases: NCI tumour cell line growth inhibition, 48 h
CAKI-1 renal = system: CAKI-1 renal
HCT-116 colon = system: HCT-116 colon
HOP-62 NSCLC = system: HOP-62 NSCLC
HOP-92 NSCLC = system: HOP-92 NSCLC
KM12 colon = system: KM12 colon
LOX IMVI melanoma = system: LOX IMVI melanoma
RXF 393 renal = system: RXF 393 renal
SF-295 CNS = system: SF-295 CNS
SK-OV-3 ovarian = system: SK-OV-3 ovarian
MCF7 breast = system: MCF7 breast

SMILES	GI50 (CAKI-1 renal) [µM]	TGI (CAKI-1 renal) [µM]	GI50 (HCT-116 colon) [µM]	TGI (HCT-116 colon) [µM]	GI50 (HOP-62 NSCLC) [µM]	TGI (HOP-62 NSCLC) [µM]	GI50 (HOP-92 NSCLC) [µM]	TGI (HOP-92 NSCLC) [µM]	GI50 (KM12 colon) [µM]	TGI (KM12 colon) [µM]	GI50 (LOX IMVI melanoma) [µM]	TGI (LOX IMVI melanoma) [µM]	GI50 (RXF 393 renal) [µM]	TGI (RXF 393 renal) [µM]	GI50 (SF-295 CNS) [µM]	TGI (SF-295 CNS) [µM]	GI50 (SK-OV-3 ovarian) [µM]	TGI (SK-OV-3 ovarian) [µM]	TGI (MCF7 breast) [µM]	GI50 (MCF7 breast) [µM]
O=C(c1ccccc1)c1nn(-c2ccccc2)c2nc3nc(-c4ccccc4)cc(=O)n3nc12	68	> 100	14.6	28	38	> 100	24.6	78.3	28.3	82.1	25.8	78.7	26	> 100	19.9	53	62.2	> 100		
CCCCS(=O)CC(CO)NC(=O)/C=C/c1c(C)[nH]c(=O)[nH]c1=O (stereo not given)		114		88.2		45		101		49.7		40.9		51.3		38.8		65.3	51	
C[C@]12CCc3sc(-c4cccc(F)c4)nc3C1=CC[C@@H]1[C@@H]2CC[C@]2(C)C(=O)CC[C@@H]12	1.87	3.76	1.73	3.56	3.1	11.8	2.44	5.63	3.34	17.6	1.74	3.36	1.41	2.94	1.59	4.91	2.91	9.13	4.26	1.78
O=C1CCCN1CCCN=c1cc2n(-c3ccc(Cl)cc3)c3ccccc3nc-2cc1Nc1ccc(Cl)cc1		> 100		25.3		29.5		40.6		28.7		28.2		11.3		40.7		80.7	25.8	
Cc1c(N=NN(C)C)cc[n+]([O-])c1C		> 100		> 100		> 100		> 100		> 100		> 100		> 100		> 100		> 100	> 100	
Cc1cc2c(C(C)C)c(O)c(O)c(C=Nc3ccccc3)c2c(O)c1-c1c(C)cc2c(C(C)C)c(O)c(O)c(C=Nc3ccccc3)c2c1O		> 100		> 100		> 100		> 100		> 100		> 100		> 100		> 100		> 100		
CC(C)[C@](O)(C(=O)OCC1=CCN2CC[C@@H](O)[C@@H]12)[C@H](C)O		> 375		> 375		> 375		> 375		> 375		> 174		> 375		> 375		> 375	> 375	
CCc1c(C)c2ccc(OCC(=O)N=Nc3c(O)[nH]c4ccccc34)c(C)c2oc1=O	> 33.3	> 33.3					0.69	1.56			0.832	> 7.31							> 33.3	0.992
